Experimental data as given in PMC4140855, “Production of an Attenuated Phenol-Soluble Modulin Variant Unique to the MRSA Clonal Complex 30 Increases Severity of Bloodstream Infection” (PLoS Pathogens, 2014).

Experiments:
FPR1 = molecular target: T1, FPR1 (Homo sapiens, UniProt P21462); assay: Ca2+ flux in HL60 cells stably transfected with FPR1; type: cell-based
T1 construct: expressed in transfected cells; host or cells: HL60 cells, stably transfected
T1 sequence (P21462 1-350): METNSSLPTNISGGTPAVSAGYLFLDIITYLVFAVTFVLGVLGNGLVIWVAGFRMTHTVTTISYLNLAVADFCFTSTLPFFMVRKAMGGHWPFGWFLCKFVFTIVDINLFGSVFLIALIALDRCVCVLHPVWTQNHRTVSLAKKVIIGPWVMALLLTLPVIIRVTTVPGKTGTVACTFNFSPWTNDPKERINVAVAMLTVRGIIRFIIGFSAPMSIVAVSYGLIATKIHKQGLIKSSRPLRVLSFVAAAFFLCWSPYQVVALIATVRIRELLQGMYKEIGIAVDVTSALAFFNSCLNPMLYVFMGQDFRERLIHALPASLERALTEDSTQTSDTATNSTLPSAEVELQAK
Procedure: Next, we analyzed Ca^2+ flux as a general measure to test for neutrophil activation, as used in previous studies. HL60 cells stably transfected with different FPR receptor genes were used to determine which FPR receptors are differentially activated by PSMα3 versus PSMα3N22Y (Fig. 4A). […] At a peptide concentration of 100 nM, we observed a difference of ∼factor 2 in chemotactic activity comparing the two peptides when FPR1 recognition was inhibited by CHIPS, likely attributable to FPR2-mediated recognition. Owing to the overall ∼10 times lower capacity to stimulate FPR receptors other than FPR2, we observed no chemotaxis at that peptide concentration with addition of the FPR2 blocking agent FLIPr.
(A) Differential activation of FPRs by PSMα3 versus PSMα3N22Y was measured using synthetic peptides and Ca^2+ flux observed in HL60 cells stably transfected with the corresponding FPR genes as readout, using three biological and two technical replicates. The calculated Kd values are shown on the right. […] (B) Ca^2+ flux in human neutrophils upon addition of PSMα3 or PSMα3N22Y and inhibition by FLIPr (FPR2 inhibitor) or CHIPS (FPR1 inhibitor). […]
Human neutrophils were isolated from venous blood of healthy donors as described, [39]. Neutrophil chemotaxis and Ca^2+ flux were determined as previously described, [24]. […] Chemotaxis of neutrophils was determined using a transwell system (Costar) with analysis of neutrophil migration using fluorescence labeling. Calcium fluxes were monitored as a surrogate marker for chemotaxis since it can be measured more robustly and accurately than chemotaxis. For measurement of Ca^2+ fluxes, 5×10^6 neutrophils/ml were labeled with a fluorescent dye and analyzed with a FACScalibur (Becton Dickinson) as described. […] Measurements of 2,000 events were performed and Ca^2+ flux was expressed as relative fluorescence corrected for buffer controls. […] At the desired times, PMN lysis was determined by release of lactate dehydrogenase (LDH) (Cytotoxicity Detection Kit, Roche Applied Sciences).

[1] = test system: kidneys (hematogenous seeding); assay: Mouse bacteremia (renal abscess) model; type: in vivo; settings: expressed in MRSA252 and 22030, versus isogenic strains expressing non-CC30 PSMα3
Procedure: (A) The MRSA252 strain (252, expressing PSMα3N22Y) was compared to a strain (252*) in which the psmα3 gene was changed to express non-CC30 PSMα3 in a mouse model of blood infection. Hematogenous seeding into the kidneys was measured 4 days after infecting mice via the tail vein with 1×10^7 CFU. Results from kidneys with considerable bacterial numbers (>10^3 CFU) are shown in the graph; the number of kidneys with lower or no bacteria is shown at the bottom. Analysis of significance was performed with the numbers obtained from all kidneys; *, p<0.05. Number of mice used per strain: 10. Two counts per analyzed kidney were performed. (B) Experiment as in (A) with strain 22030 expressing PSMα3N22Y and the isogenic 22030* strain expressing PSMα3. Number of mice used per strain: 20; two counts per analyzed kidney are included; inoculum: 1×10^6. *, p<0.05. (C, D) Tubulointerstitial nephritis with large colonies of bacteria (arrows) in kidneys infected with strain 252, magnification 100× (C) and 200× (D). (E) Absence of signs of infection in kidneys infected with strain 252* (magnification 100×).
For the renal abscess model, S. aureus strains were inoculated from a pre-culture and grown to mid-exponential growth phase (∼2 h), harvested, washed, and diluted with sterile PBS. […]

With `CSCC[C@H](NC=O)C(=O)N[C@@H](CCC(=O)O)C(=O)N[C@@H](Cc1ccccc1)C(=O)N[C@H](C(=O)N[C@@H](C)C(=O)N[C@@H](CCCCN)C(=O)N[C@@H](CC(C)C)C(=O)N[C@@H](Cc1ccccc1)C(=O)N[C@@H](CCCCN)C(=O)N[C@@H](Cc1ccccc1)C(=O)N[C@@H](Cc1ccccc1)C(=O)N[C@@H](CCCCN)C(=O)N[C@@H](CC(=O)O)C(=O)N[C@@H](CC(C)C)C(=O)N[C@@H](CC(C)C)C(=O)NCC(=O)N[C@@H](CCCCN)C(=O)N[C@@H](Cc1ccccc1)C(=O)N[C@@H](CC(C)C)C(=O)NCC(=O)N[C@@H](CC(N)=O)C(=O)N[C@@H](Cc1ccc(O)cc1)C(=O)O)C(C)C` [PSMα3N22Y] the “Differential activation of FPR receptors by the two peptides” value (FPR1; Ca2+ flux, transfected HL60 cells, not FPR2 and FPR3) was “only FPR1 was activated differentially”, the Kd (FPR1; one site-binding model from Ca2+ flux, synthetic peptides, FPR1-transfected HL60 cells, three biological and two technical replicates, error = standard deviation) was 3.04 ± 0.682 µM and the “Factor of difference in FPR1 Kd, PSMα3 versus PSMα3N22Y” value (FPR1; significant difference) was about 5. The “Capacity to cause sepsis and subsequent complications” value [1] was “increased capacity to cause sepsis and subsequent complications”.
